Key:
PR-8 Influenza (RNA) = assay type: cell-based, Influenza virus; details: PR8; 50 μg of test compound
[1] = system: Coxsackie A21 virus (RNA); test: Agar diffusion plaque inhibition assay, COE; assay type: cell-based; details: 50 μg of test compound
[2] = system: Herpes simplex virus type II (DNA); test: Agar diffusion plaque inhibition assay, HSV-2; assay type: cell-based; details: 50 μg of test compound
cells = test: Agar diffusion plaque inhibition assay, zone of cytotoxicity (cell death); assay type: cell-based; details: 50 μg of test compound
Description: These tests were performed by the methods described in the following published reference: (H. E. Renis, C. A. Hollowell, and G. E. Underwood, J. Med. Chem., Vol 10, pp 777-782 (1967)). Both DNA and RNA-containing viruses were used. The results are presented below as the zone of cytotoxicity (cell death)/zone of viral plaque inhibition for 50 μg of test compound.

[3] = system: Herpes simplex virus type I (DNA); test: Agar diffusion plaque inhibition assay, HSV-1; assay type: cell-based; details: 50 μg of test compound
[4] = system: Parainfluenza 3 virus (RNA); assay type: cell-based; details: HA-1; 50 μg of test compound
Vaccinia virus (DNA) = assay type: cell-based; details: VACC.; 50 μg of test compound
Equine rhinovirus (RNA) = test: Agar diffusion plaque inhibition assay, E.R.; assay type: cell-based; details: 50 μg of test compound

## COc1ccc(C[C@H]2C(=O)O[C@H](C)[C@H](NC(=O)[C@@H](CC(C)C)N(C)C(=O)C3CCCN3C(=O)C(C)OC(C)=O)C(=O)NC(CC(C)C)C(OC(C)=O)CC(=O)OC(C(C)C)C(=O)C(C)C(=O)N[C@@H](CC(C)C)C(=O)N3CCC[C@H]3C(=O)N2C)cc1 (some centres unmarked) [Diacetyl]
PR-8 Influenza (RNA)
  zone of viral plaque inhibition: 0
[1]
  zone of viral plaque inhibition: 3
[2]
  zone of viral plaque inhibition: 4
cells; COE
  zone of cytotoxicity (cell death): 3
cells; E.R.
  zone of cytotoxicity (cell death): 2
cells; HA-1
  zone of cytotoxicity (cell death): 1
cells; HSV-1
  zone of cytotoxicity (cell death): 3
cells; HSV-2
  zone of cytotoxicity (cell death): 3
cells; PR8
  zone of cytotoxicity (cell death): 3
cells; VACC.
  zone of cytotoxicity (cell death): 3
[3]
  zone of viral plaque inhibition: 4
[4]
  zone of viral plaque inhibition: 0
Vaccinia virus (DNA)
  zone of viral plaque inhibition: 4
Equine rhinovirus (RNA)
  zone of viral plaque inhibition: 4
